Experimental data reported in patent publication US12053447B2, “Oral solution and powder to liquid compositions of balsalazide” (NuBioPharma, LLC, priority 2019, dated 2024).
Residues, ends and D or L forms follow the SMILES beside them.

Tests used:
[1] = Stability of sweetener aspartame in solution; assay type: physicochemical; details: pH 7.0 and above
[2] = Storage stability of liquid balsalazide solution (HPLC assay, settling); assay type: physicochemical
Protocol: The storage stability of two balsalazide disodium solutions, 750 mg/5 ml, with the formulations described in TABLE 6 and TABLE 7 with pH of 4.8 and pH 7.2, respectively were subjected to accelerated stability testing at 40° C. and at room temperature (25° C.). Balsalazide solutions stored in amber PVC bottles (30 ml volume) were tested over a 90-day storage period. The amount of balsalazide and its known impurities were determined by a validated high pressure liquid chromatography (HPLC) assay after 0 day (initial), 45 days, and 90 days and results are shown in TABLE 6 below. Five minor impurities (less than 0.1% each) were identified in balsalazide solution initially on day 0.

SMILES | stability in solution [1] | stability of oral solution ([2]; acidic conditions of pH below 7.0) | stability of oral solution ([2]; pH of 7.0 or higher)
COC(=O)[C@H](Cc1ccccc1)NC(=O)[C@@H](N)CC(=O)O [aspartame] (H-Asp-Phe-OMe) | unstable | – | –
O=C(O)CCNC(=O)c1ccc(/N=N/c2ccc(O)c(C(=O)O)c2)cc1 [balsalazide] | – | unstable | stable
